Data published in US5447916A, “Peptoid alpha-1 adrenergic receptor ligands” (Chiron Corporation, priority 1993, dated 1995).

System: α1-adrenergic receptors
Assay: 3H-Prazosin binding assay on rat forebrain membranes
Conditions: for Percent Inhibition: Inhibition at 100 nM (100 nM receptor concentration as printed), 3H-Prazosin; for IC50 / Ki: 0.5 nM 3H-Prazosin; for Ki: 1 hr at room temperature
Method: Preparation of Rat Forebrain Membranes:
Rat brains were purchased from Animal Technologies, Tyler, Tex., and shipped on wet ice within 24 hours after being harvested. The forebrains were dissected and homogenized with a Tissue Tearor in 50 mM Tris, pH 7.5, containing 20 mM NaCl, 5 mM EGTA, 2 mM MgCl2, 21 μg/mL aprotinin, 0.5 mg/L leupeptin, 0.7 mg/L pepstatin, 0.2 mM PMSF. Each brain is homogenized in approximately 5 mL of this buffer. The homogenate is then spun at 1000 RPM (75×g) in a Sorval RC-5B centrifuge (SS-34 rotor) for 10 min. The pellets are discarded and the supernatants then respun at 17,000 RPM (22,500×g) for 15 min. The pellets were then resuspended in the same buffer as above containing 5 mM EDTA and no MgCl2 (1 brain/mL). Membranes were stored in 1 mL aliquots at -70° C.
Thawed membranes were dispersed into a homogenous solution by passing them through a 22 gauge needle 5 times. To initiate the assay, 50 μL of membrane were dispensed into a plastic 12×75 mm tube containing 1 mL of 50 mM Tris, pH 7.5, 0.5 nM ^3 H-Prazosin (New England Nuclear), and the compounds to be tested. Nonspecific binding was determined as ^3 H-Prazosin bound in the presence of 5 μM unlabeled prazosin. Incubation was for 1 hr at room temperature. Unbound radioactivity was removed by rinsing the membranes on Whatman GF/B glass fiber filters. Each filter was washed 3 times with 3 mL of 50 mM Tris, pH 7.5, 4° C. Filters were soaked overnight in 5 mL of Beckman ReadySafe scintillation cocktail then counted for one minute in a Wallac 1409 liquid scintillation counter.

| Compound | Percent Inhibition [%] | IC50 [nM] | Ki [nM] |
| --- | --- | --- | --- |
| Nzhphe-Nbiph-Nhphe [Nzhphe--Nbiph--Nhphe] | 53.9 | – | – |
| Nhtyr- Npbiph-Nhphe [Nhtyr--Npbiph--Nhphe] | 20.3 | – | – |
| Nhtyr-Nbiph-Nmhphe [Nhtyr--Nbiph--Nmhphe] | 21.2 | – | – |
| Nhtyr-Npop-Nhphe [Nhtyr--Npop--Nhphe] | – | 490 | 140 |
| NC(=O)CN(CCc1ccccc1)C(=O)CN(C(=O)CNCCc1ccc(O)cc1)c1ccc(-c2ccccc2)cc1 [Nhtyr--Nbiph--Nhphe, Nhtyr-Nbiph-Nhphe] | – | 19 | 7 |
| Nhtyr--Nbiph--Nbhm | – | 1400 | 313 |
| Nphtyr-Nbiph-Nhphe [Nphtyr--Nbiph--Nhphe] | 22.7 | – | – |
| Bz-Nhphe-Nbiph-Nhphe [Bz--Nhphe--Nbiph--Nhphe] | 24.8 | – | – |
| Nhtyr-Nbiph-Nphphe [Nhtyr--Nbiph--Nphphe] | 48.3 | – | – |
| Noco-Nbiph-Nhphe [Noco--Nbiph--Nhphe] | 23.6 | – | – |
